The source of these data is ChEMBL document CHEMBL5715260, “Selectivity Literature for EUbOPEN Chemogenomic Library” (2024).

The target of experiment [1] is Nuclear receptor subfamily 2 group E member 1 (Homo sapiens) (UniProt Q9Y466). Description: Selectivity interaction (Reporter gene assay) EUB0001160a NR2E1. Details: recommended concentration 1 uM. A general note: Reporter assays use an easily measured gene product as a stand-in for the process of interest.
Experiment [2] deals with T1, Hepatocyte nuclear factor 4-alpha (Homo sapiens) (UniProt P41235).
T1 sequence (whole entry): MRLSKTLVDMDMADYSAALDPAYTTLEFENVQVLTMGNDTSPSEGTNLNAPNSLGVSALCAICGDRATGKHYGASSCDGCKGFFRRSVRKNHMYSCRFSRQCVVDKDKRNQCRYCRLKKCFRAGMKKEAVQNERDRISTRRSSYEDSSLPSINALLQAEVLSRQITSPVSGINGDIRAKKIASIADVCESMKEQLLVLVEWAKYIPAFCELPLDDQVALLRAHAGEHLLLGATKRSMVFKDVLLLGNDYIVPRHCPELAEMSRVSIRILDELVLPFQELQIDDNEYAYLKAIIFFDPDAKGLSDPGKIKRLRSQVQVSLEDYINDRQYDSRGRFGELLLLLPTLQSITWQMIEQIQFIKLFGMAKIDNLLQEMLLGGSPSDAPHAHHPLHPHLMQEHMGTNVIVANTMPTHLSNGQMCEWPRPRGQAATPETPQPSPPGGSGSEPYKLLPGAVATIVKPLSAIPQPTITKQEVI
Description: Selectivity interaction (Reporter gene assay) EUB0001160a HNF4A. Also on record: recommended concentration 1 uM.

Experiment [3] addresses T2, Nuclear receptor subfamily 2 group C member 1 (Homo sapiens) (UniProt P13056).
T2 sequence (whole entry): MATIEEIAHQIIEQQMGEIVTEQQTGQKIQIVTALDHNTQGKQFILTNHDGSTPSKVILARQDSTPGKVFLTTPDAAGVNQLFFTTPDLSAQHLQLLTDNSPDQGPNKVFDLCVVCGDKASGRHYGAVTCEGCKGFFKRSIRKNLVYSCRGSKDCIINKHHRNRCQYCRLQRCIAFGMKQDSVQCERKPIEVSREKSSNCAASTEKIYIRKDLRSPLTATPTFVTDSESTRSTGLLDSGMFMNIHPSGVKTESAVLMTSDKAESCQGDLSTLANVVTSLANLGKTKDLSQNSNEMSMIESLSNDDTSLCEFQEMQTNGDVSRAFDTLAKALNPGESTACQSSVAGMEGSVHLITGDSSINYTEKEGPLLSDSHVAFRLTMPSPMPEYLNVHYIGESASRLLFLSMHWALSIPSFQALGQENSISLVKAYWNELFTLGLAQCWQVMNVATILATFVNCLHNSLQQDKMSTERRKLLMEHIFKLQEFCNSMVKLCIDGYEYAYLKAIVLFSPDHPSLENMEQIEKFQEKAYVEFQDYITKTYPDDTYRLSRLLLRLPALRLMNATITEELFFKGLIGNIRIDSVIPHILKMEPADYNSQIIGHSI
Description: Selectivity interaction (Reporter gene assay) EUB0001160a NR2C1. Also on record: recommended concentration 1 uM.

In experiment [4] the target is T3, Retinoic acid receptor RXR-alpha (Homo sapiens) (UniProt P19793).
T3 sequence (whole entry): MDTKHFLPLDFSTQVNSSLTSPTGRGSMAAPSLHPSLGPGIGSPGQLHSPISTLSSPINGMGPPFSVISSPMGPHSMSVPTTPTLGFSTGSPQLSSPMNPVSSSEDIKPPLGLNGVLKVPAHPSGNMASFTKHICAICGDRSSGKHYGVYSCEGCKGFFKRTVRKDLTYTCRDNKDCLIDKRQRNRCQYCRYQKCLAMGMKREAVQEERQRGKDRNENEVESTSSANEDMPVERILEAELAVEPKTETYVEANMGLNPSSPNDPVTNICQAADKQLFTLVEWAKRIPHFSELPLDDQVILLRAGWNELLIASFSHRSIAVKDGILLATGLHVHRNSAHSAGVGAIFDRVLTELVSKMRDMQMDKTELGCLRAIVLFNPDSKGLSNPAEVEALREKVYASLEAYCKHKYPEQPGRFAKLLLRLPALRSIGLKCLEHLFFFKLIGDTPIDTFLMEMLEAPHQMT
Briefly: Selectivity interaction (Reporter gene assay) EUB0001160a RXRA. Also on record: recommended concentration 1 uM.

Experiment [5] has as its target Nuclear receptor subfamily 4immunitygroup A member 1 (Homo sapiens) (UniProt P22736). Briefly: Selectivity interaction (Reporter gene assay) EUB0001160a NR4A1. Details: recommended concentration 1 uM.
The target of experiment [6] is T4, Alpha trans-inducing protein (Human alphaherpesvirus 1) (UniProt A0A5J6DW59). Description: Selectivity interaction (Reporter gene assay) EUB0001160a UL48. Also on record: recommended concentration 1 uM.
Experiment [7] has as its target Steroidogenic factor 1 (Homo sapiens) (UniProt Q13285). Briefly: Selectivity interaction (Reporter gene assay) EUB0001160a NR5A1. Also on record: recommended concentration 1 uM.
The target of experiment [8] is Nuclear receptor subfamily 4immunitygroup A member 1 (Homo sapiens) (UniProt P22736). Briefly: Selectivity interaction (Reporter gene assay) EUB0001158a NR4A1. Also on record: recommended concentration 1 uM.
Experiment [9] deals with T2, Nuclear receptor subfamily 2 group C member 1 (Homo sapiens). Briefly: Selectivity interaction (Reporter gene assay) EUB0001158a NR2C1. Details: recommended concentration 1 uM.
Experiment [10] concerns the target T3, Retinoic acid receptor RXR-alpha (Homo sapiens). Description: Selectivity interaction (Reporter gene assay) EUB0001158a RXRA. As to conditions: reference bexarotene 1 uM, Selectivity number of off-targets 0.0, Selectivity number of targets 1.0, Source Knowledge inhouse. Details: recommended concentration 1 uM.
In experiment [11] the target is T1, Hepatocyte nuclear factor 4-alpha (Homo sapiens). Description: Selectivity interaction (Reporter gene assay) EUB0001158a HNF4A. Also on record: recommended concentration 1 uM.
The target of experiment [12] is Steroidogenic factor 1 (Homo sapiens) (UniProt Q13285). Description: Selectivity interaction (Reporter gene assay) EUB0001158a NR5A1. Also on record: recommended concentration 1 uM.
In experiment [13] the target is Nuclear receptor subfamily 2 group E member 1 (Homo sapiens) (UniProt Q9Y466). Description: Selectivity interaction (Reporter gene assay) EUB0001158a NR2E1. Details: recommended concentration 1 uM.
The target of experiment [14] is T4, Alpha trans-inducing protein (Human alphaherpesvirus 1). Description: Selectivity interaction (Reporter gene assay) EUB0001158a UL48. Details: recommended concentration 1 uM.
Experiment [15] deals with T3, Retinoic acid receptor RXR-alpha (Homo sapiens). Briefly: Selectivity interaction (Reporter gene assay) EUB0001152a RXRA. Also on record: recommended concentration 10 uM.
In experiment [16] the target is Nuclear receptor subfamily 2 group E member 1 (Homo sapiens) (UniProt Q9Y466). Briefly: Selectivity interaction (Reporter gene assay) EUB0001152a NR2E1. Details: recommended concentration 10 uM.
For experiment [17], the target named is T4, Alpha trans-inducing protein (Human alphaherpesvirus 1). Briefly: Selectivity interaction (Reporter gene assay) EUB0001152a UL48. Details: recommended concentration 10 uM.
In experiment [18] the target is T2, Nuclear receptor subfamily 2 group C member 1 (Homo sapiens). Description: Selectivity interaction (Reporter gene assay) EUB0001152a NR2C1. Details: recommended concentration 10 uM. As to conditions: screened at recom. conc., Selectivity number of off-targets 1.0, Selectivity number of targets 5.0, Source Knowledge inhouse.
Experiment [19] addresses T1, Hepatocyte nuclear factor 4-alpha (Homo sapiens). Description: Selectivity interaction (Reporter gene assay) EUB0001152a HNF4A. Details: recommended concentration 10 uM.
Experiment [20] concerns the target Steroidogenic factor 1 (Homo sapiens) (UniProt Q13285). Description: Selectivity interaction (Reporter gene assay) EUB0001152a NR5A1. Also on record: recommended concentration 10 uM.
Experiment [21] deals with Nuclear receptor subfamily 4immunitygroup A member 1 (Homo sapiens) (UniProt P22736). Description: Selectivity interaction (Reporter gene assay) EUB0001152a NR4A1. Details: recommended concentration 10 uM.
Experiment [22] has as its target T2, Nuclear receptor subfamily 2 group C member 1 (Homo sapiens). Briefly: Selectivity interaction (Reporter gene assay) EUB0001159a NR2C1. Details: recommended concentration 1 uM.
Experiment [23] deals with Nuclear receptor subfamily 4immunitygroup A member 1 (Homo sapiens) (UniProt P22736). Briefly: Selectivity interaction (Reporter gene assay) EUB0001159a NR4A1. Details: recommended concentration 1 uM.
The target in experiment [24] is Steroidogenic factor 1 (Homo sapiens) (UniProt Q13285). Description: Selectivity interaction (Reporter gene assay) EUB0001159a NR5A1. Details: recommended concentration 1 uM.
Experiment [25] has as its target T1, Hepatocyte nuclear factor 4-alpha (Homo sapiens). Description: Selectivity interaction (Reporter gene assay) EUB0001159a HNF4A. Also on record: recommended concentration 1 uM.
Experiment [26] deals with T3, Retinoic acid receptor RXR-alpha (Homo sapiens). Briefly: Selectivity interaction (Reporter gene assay) EUB0001159a RXRA. Also on record: recommended concentration 1 uM. The conditions noted are these: reference bexarotene 1 uM, Selectivity number of off-targets 0.0, Selectivity number of targets 1.0, Source Knowledge inhouse.
For experiment [27], the target named is T4, Alpha trans-inducing protein (Human alphaherpesvirus 1). Description: Selectivity interaction (Reporter gene assay) EUB0001159a UL48. Details: recommended concentration 1 uM.
In experiment [28] the target is Nuclear receptor subfamily 2 group E member 1 (Homo sapiens) (UniProt Q9Y466). Briefly: Selectivity interaction (Reporter gene assay) EUB0001159a NR2E1. Details: recommended concentration 1 uM.
The target of experiment [29] is T4, Alpha trans-inducing protein (Human alphaherpesvirus 1). Description: Selectivity interaction (Reporter gene assay) EUB0001153a UL48. Details: recommended concentration 10 uM.
Experiment [30] deals with Steroidogenic factor 1 (Homo sapiens) (UniProt Q13285). Briefly: Selectivity interaction (Reporter gene assay) EUB0001153a NR5A1. Details: recommended concentration 10 uM.
For experiment [31], the target named is Nuclear receptor subfamily 4immunitygroup A member 1 (Homo sapiens) (UniProt P22736). Briefly: Selectivity interaction (Reporter gene assay) EUB0001153a NR4A1. As to conditions: screened at recom. conc., Selectivity number of off-targets 1.0, Selectivity number of targets 5.0, Source Knowledge inhouse. Details: recommended concentration 10 uM.
The target of experiment [32] is T2, Nuclear receptor subfamily 2 group C member 1 (Homo sapiens). Description: Selectivity interaction (Reporter gene assay) EUB0001153a NR2C1. Also on record: recommended concentration 10 uM.
Experiment [33] has as its target T1, Hepatocyte nuclear factor 4-alpha (Homo sapiens). Description: Selectivity interaction (Reporter gene assay) EUB0001153a HNF4A. Also on record: recommended concentration 10 uM.
Experiment [34] addresses Nuclear receptor subfamily 2 group E member 1 (Homo sapiens) (UniProt Q9Y466). Description: Selectivity interaction (Reporter gene assay) EUB0001153a NR2E1. Details: recommended concentration 10 uM.
Experiment [35] addresses T3, Retinoic acid receptor RXR-alpha (Homo sapiens). Briefly: Selectivity interaction (Reporter gene assay) EUB0001153a RXRA. Also on record: recommended concentration 10 uM. As to conditions: reference bexarotene 1 uM, Selectivity number of off-targets 0.0, Selectivity number of targets 1.0, Source Knowledge inhouse.

Chain of Nuclear receptor subfamily 4immunitygroup A member 1 (Homo sapiens) (P22736 whole entry): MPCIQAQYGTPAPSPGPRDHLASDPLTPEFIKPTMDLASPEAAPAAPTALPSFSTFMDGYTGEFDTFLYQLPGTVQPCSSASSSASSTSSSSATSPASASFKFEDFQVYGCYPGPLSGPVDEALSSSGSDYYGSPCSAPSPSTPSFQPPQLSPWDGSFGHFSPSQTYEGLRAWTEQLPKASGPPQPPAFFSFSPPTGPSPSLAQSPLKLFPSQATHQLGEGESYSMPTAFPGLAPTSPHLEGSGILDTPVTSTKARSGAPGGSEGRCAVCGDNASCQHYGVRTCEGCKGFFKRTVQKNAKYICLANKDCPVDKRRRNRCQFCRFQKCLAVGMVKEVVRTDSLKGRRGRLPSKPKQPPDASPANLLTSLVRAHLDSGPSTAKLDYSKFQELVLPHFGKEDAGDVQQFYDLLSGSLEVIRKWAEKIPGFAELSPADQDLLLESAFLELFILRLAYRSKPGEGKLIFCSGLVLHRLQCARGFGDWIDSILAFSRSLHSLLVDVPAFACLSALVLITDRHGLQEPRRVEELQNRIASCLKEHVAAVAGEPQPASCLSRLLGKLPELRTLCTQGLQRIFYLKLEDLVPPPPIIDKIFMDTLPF
T4 sequence (A0A5J6DW59 as listed by the source): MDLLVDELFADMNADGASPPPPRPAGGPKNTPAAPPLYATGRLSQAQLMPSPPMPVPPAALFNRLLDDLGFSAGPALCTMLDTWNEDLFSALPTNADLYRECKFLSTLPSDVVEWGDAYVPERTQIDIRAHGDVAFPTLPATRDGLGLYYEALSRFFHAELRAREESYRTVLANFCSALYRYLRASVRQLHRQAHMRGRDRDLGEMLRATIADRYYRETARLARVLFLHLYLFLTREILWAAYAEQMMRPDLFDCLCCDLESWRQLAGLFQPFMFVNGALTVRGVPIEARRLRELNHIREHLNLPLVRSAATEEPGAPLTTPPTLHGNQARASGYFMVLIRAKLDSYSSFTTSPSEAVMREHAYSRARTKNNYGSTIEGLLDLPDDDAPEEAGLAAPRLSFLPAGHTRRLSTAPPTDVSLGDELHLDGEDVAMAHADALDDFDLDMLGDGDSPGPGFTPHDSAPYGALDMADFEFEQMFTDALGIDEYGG
Chain of Nuclear receptor subfamily 2 group E member 1 (Homo sapiens) (Q9Y466 whole entry): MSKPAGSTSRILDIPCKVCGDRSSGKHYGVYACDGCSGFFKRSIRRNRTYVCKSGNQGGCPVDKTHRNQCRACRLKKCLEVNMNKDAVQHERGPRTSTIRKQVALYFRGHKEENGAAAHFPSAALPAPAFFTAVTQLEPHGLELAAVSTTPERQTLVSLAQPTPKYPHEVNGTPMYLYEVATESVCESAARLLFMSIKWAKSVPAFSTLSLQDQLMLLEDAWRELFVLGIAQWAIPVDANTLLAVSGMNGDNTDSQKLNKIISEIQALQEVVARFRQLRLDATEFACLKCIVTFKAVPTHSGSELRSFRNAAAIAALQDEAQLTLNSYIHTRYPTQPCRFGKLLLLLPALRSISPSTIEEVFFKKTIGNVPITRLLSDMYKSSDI
Chain of Steroidogenic factor 1 (Homo sapiens) (Q13285 whole entry): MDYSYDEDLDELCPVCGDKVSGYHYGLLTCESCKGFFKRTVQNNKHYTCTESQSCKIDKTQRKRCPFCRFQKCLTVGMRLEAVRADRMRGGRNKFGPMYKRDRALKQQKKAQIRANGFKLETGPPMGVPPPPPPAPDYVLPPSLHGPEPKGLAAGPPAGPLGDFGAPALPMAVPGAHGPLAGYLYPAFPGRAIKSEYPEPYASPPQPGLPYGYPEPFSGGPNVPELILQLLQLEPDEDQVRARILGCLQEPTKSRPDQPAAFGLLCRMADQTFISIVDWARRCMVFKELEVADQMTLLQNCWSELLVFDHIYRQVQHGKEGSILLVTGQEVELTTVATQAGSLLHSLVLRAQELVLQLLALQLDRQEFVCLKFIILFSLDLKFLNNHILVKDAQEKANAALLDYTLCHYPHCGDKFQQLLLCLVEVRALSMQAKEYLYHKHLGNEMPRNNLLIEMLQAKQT

`OC(c1ccc(-c2ccc(CN3CCN(Cc4ccncc4)CC3)cc2)c(F)c1)(C(F)(F)F)C(F)(F)F`: the values for the Fold activation in experiment [1] and in experiment [3] were 1.21 and 1.26, respectively. Further, the Remaining activity in experiment [2] is 0.878; in [5], 0.922; in [7], 0.561. In experiment [4], this compound showed a Relative activation of 1.19%. In experiment [6], this compound registered a P-value of 0.00194.
`CC(=O)Nc1nc(C)c(S(=O)(=O)Nc2ccc(C(O)(C(F)(F)F)C(F)(F)F)cc2)s1`: the Remaining activity in experiment [8] came to 0.661; in [9], 0.684; in experiment [11] it was 0.71; in [12], 0.814; in [13], 0.58. The Relative activation in experiment [10] turned out to be 0.191%. This compound also showed a P-value in experiment [14] of 3.31e-05.
`CCOC(=O)N1CCC(CN(Cc2ccc(Cl)cc2)Cc2ccc([N+](=O)[O-])s2)C1` (stereo not given) had a Relative activation in experiment [15] of 0.237%. Besides, the Remaining activity in experiment [16] stood at 0.62; in [18], 0.46; in experiment [19], 0.579; in experiment [20] it was 0.905. Moreover, the P-value in experiment [17] was 0.0179. In addition, the Fold activation in experiment [21] was 1.3.
On to `CCc1ccc(N(CC(C)C)S(=O)(=O)c2ccc(OCC3CCOCC3)c(CO)c2)cc1`, for which the Remaining activity in experiment [22] turned out to be 0.852; in [23], 0.905; in [24] it was 0.989; in [25], 0.994; in experiment [28], 0.852. In [26], this compound registered a Relative activation of 0.288%. This compound gave a P-value in experiment [27] of 0.00142.
`CCOC(=O)C1Cc2ccccc2CN1C(=O)c1ccc(SC)s1` (stereo not given): the P-value in [29] came out at 0.0358. For the same compound, the Fold activation was 1.11 in experiment [30], 2.05 in experiment [31], 1.13 in experiment [32] and 1.33 in experiment [34]. In experiment [33], this compound displayed a Remaining activity of 0.77. The same compound yielded a Relative activation in experiment [35] of 0.245%.
